Tests used:
CDKN1A = assay: qPCR of senescence marker CDKN1A; format: cell-based, human; settings: for CDKN1A expression, fold change vs Control: day 15, n=4; for decrease of senescence marker CDKN1A (Ctrl vs shRNA): primary T cells, day 15
Excerpt: A new set of shRNAs were cloned into the pSIH backbone, where the shRNA expression is driven by the H1 promoter. The vector was also engineered to co-express GFP and Puromycin resistance through a T2A sequence. The new shRNA sequences were: shUSP16 #1 5′-[…]-3′ (SEQ ID NO: 8) and shUSP16 #2 5′-[…]-3′ (SEQ ID NO: 9). Primary T cells were activated as described (Example 3), transduced with a lentivirus encoding either a shUSP16 #1, shUSP16 #2 or a scrambled shRNA (Control) and cells were selected with puromycin at day 6. Between 1 and 1.25×10^6 cells were plated post-puromycin selection with a purity higher than 90% and counted every 2-4 days by Trypan Blue exclusion using Vi-CELL XR cell counter (Beckman Coulter). qPCR was performed to verify downregulation of USP16 expression (FIG. 14A) and the expression of the senescent marker CDKN1A (FIG. 14B) at day 15. Proliferation was measured as fold increased compared to shControl at day 15 post-activation. The experiment was repeated using primary T cells obtained from buffy coats of 3 different healthy donors.
Primary T cells were activated as described (Example 3), transduced with a lentivirus encoding for either a CD19.CAR or a GD2.CAR co-expressing shUSP16 #1, shUSP16 #2 or a scrambled shRNA (Control). Fifteen days post-activation, T cells were collected and qPCR performed. TaqMan probes detecting CDKN1A, CDKN2A (FIGS. 26A and 26B) (fold change GD2.CAR (n=4): CDKN1A Control vs shUSP #1: 0.4360, p<0.0001, and Control vs shUSP16 #2: 3.036, p=0.004 respectively. Fold change CD19.CAR (n=4): CDKN2a, CDKN1A Control vs shUSP #1: 0.6906, p=0.0026; 0.7228, p=0.0297 and Control vs shUSP16 #2: 0.8385, p=0.2325; 0.7017, p=0.0021), TCF7, LEF1, and Axin-2 (FIGS. 27A and B) were analyzed in GD2.CAR and CD19.CAR-expressing cells, respectively. ACTB was used as internal control. (GD2.CAR (n=4) TCF7, LEF1 and Axin-2: Control vs shUSP #1: 1.914 p=0.0512; 1.795 p=0.0323; 3.269 p=0.15 and Control vs shUSP16 #2: 1.284 p=0.0494; 1.718 p=0.0586; 2.035p=0.235, respectively. Fold change CD19.CAR (n=4): TCF7, LEF1 and Axin-2: Control vs shUSP #1: 1.528, p=0.0277; 1.82, p=0.0449; 1.998, p=0.031 and Control vs shUSP16 #2: 1.18, p=0.2002; 1.579, p=0.0632; 1.261, p=0.2382). USP16 downregulation in CAR-T cells results in a decreased expression of senescence markers and an increase in the expression of genes associated with the activation/increased signaling of the WNT pathway, indicating its importance in delaying cellular senescence and increasing self-renewal.

CD19.CAR T cells = assay: Apoptosis, necrosis, mitochondrial membrane potential and glutathione content (Amberglass panel); format: cell-based, human; settings: for cells with low mitochondrial membrane potential (Q1) / cellular health: high mitochondrial membrane potential and high GSH content (Q2): day 15; for apoptosis: day 15, FIG. 31A top left; for necrosis: day 15, FIG. 31A top right
Procedure: Primary T cells were activated as described (Example 3), and transduced with a lentivirus encoding for CD19.CAR co-expressing shUSP16 #1, shUSP16 #2 or a scrambled shRNA (Control). Cells were cultured in IL-2 and sorted between days 6-13 for EGFRt. At day 15 cells were stained and analyzed by MACSQuant for apoptosis, necrosis, mitochondrial membrane potential and glutathione content (GSH). The data generation was powered by Amberglass technology made available by Mojave Bio in the form of a dehydrated panel of reagents on a 96 well plate.

[1] = test system: CHLA-55 neuroblastoma cell lines; assay: In vivo anti-tumor activity of GD2.CAR T cells (circulating Gaussia luciferase); settings: immunocompromised mice, one million GD2.CAR T cells via tail vein, n=4-6
Procedure: Primary T cells were activated as described (Example 3), transduced with a lentivirus encoding for either a CD19.CAR or a GD2.CAR co-expressing shUSP16 #1, shUSP16 #2, or a scrambled shRNA (Control). Cells were cultured in IL-2 and sorted between days 6-13 for EGFRt. At day 15 cells were frozen down (to mimic the clinic setting) and thawed d−1 before injection in immunocompromised mice. Immunocompromised mice (NCG (NOD CRISPR Prkdc II2r Gamma) were provided by Charles River and NSG (NOD.Cg-PrkdcIL2rg<tm1Wj1>/SzJ) were purchased from Jackson Laboratory). CHLA-55 neuroblastoma cell lines were transduced with Gaussia Luciferase and one million cells were injected via tail vein at d−7 (day minus 7).
One million of GD2.CAR T cells were infused via tail vain at day 0 and mice were weighted, and blood was collected every week (FIG. 36). Tumor growth was monitor by weekly assessment of circulating luciferase. Briefly, blood was collected and subsequently analyzed for luciferase expression using Nanolight Technologies Luciferase detection Kit. Luciferase expression (calculated as GLuc, RLU (Relative Luminescence Unit)) in the blood correlates with tumor engraftment.

NALM cells = assay: Re-challenge cytotoxicity assay, CD19.CAR T cells; format: cell-based, human; settings: after double tumor-challenge, n=3
Procedure: Primary T cells were activated as described (Example 3), transduced with a lentivirus encoding for either a CD19.CAR or a GD2.CAR co-expressing shUSP16 #1, shUSP16 #2 or a scrambled shRNA (Control). Cells were cultured in IL-2 and sorted between days 6-13 for EGFRt. At day 16 cytotoxicity assays were performed. Briefly, cells were counted and 100,000 T cells (adjusted for EGFR expression) were plated at 1:5 Effector:Target (E:T) ratio. At 72 hours, the mixture of tumor cells and T cells were collected, stained for CD3-PE, CD8-BV510, CD19- or GD2-APC, EGFR-AF488 and Sytox and counted by flow cytometry (MACSQuant, Miltenyi Biotec) (FIGS. 30A and 30B). Counting beads (CountBright Absolute Counting beads, Invitrogen) were added before acquisition and absolute number was calculated as following (number of cell events/number of bead events)×(assigned bead count of the lot (beads/50 ul)/volume of sample (ul))=concentration of sample as cells/ul). NALM cells were used as target cells for CD19.CAR T cells and CHLA-55 cells were used as target for GD2.CAR T cells. Three different primary T cell cultures were tested for CD19 and GD2 CAR.
At day 16, regular cytotoxicity assays were also performed (Example 22). Three days post-antigen stimulation, CD19.CAR T cells were stained for EGFR-AF488 (R&D), CD3-PE, CD8-BV510, PD-1-Allophycocyanin and Lag-3 and CTLA4 (Biolegend) and acquired by MACSQuant (Miltenyi Biotec). The co-cultures we also re-challenged with the addition of fresh tumor cells. T cell killing and expansion upon double tumor-challenge was assessed after three days.

| Substance | CDKN1A expression, fold change vs Control (CDKN1A; CD19.CAR) | CDKN1A expression, fold change vs Control (CDKN1A; GD2.CAR) | decrease of senescence marker CDKN1A (Ctrl vs shRNA) (CDKN1A) | cells with low mitochondrial membrane potential (Q1) (CD19.CAR T cells) | cellular health: high mitochondrial membrane potential and high GSH content (Q2) (CD19.CAR T cells) | apoptosis (CD19.CAR T cells) | necrosis (CD19.CAR T cells) | CHLA-55 engraftment, luciferase expression in blood (GLuc) [1] | T cell number (NALM cells) | residual tumor cells (NALM) (NALM cells) |
| --- | --- | --- | --- | --- | --- | --- | --- | --- | --- | --- |
| shUSP16 #2: shRNA targeting USP16, 5′-TATATCAGTTCACCCGTAAT-3′ (SEQ ID NO: 9), pSIH backbone or co-expressed in CAR plasmid | 0.7017 | 3.036 | 37% | 9.87 percentage of cells | 85.7 | 8.25 | 3.96 | 38968 RLU | 204291 | 160874 |
| shUSP16 #1: shRNA targeting USP16, 5′-GACTGTAAGACTGACAATAAA-3′ (SEQ ID NO: 8), pSIH backbone or co-expressed in CAR plasmid | 0.7228 | 0.4360 | 23% | 7.62 percentage of cells | 89.9 | 9.40 | 4.75 | 53279 RLU | 192643 | 282761 |
